Molecules are shown by their SMILES.

The first experiment concerns HCV pseudoparticles (genotype 1a HCV E1 and E2 envelope, H77C isolate). As to the kind of experiment: microbe, parasite or virus in culture. The following applies: Hepatitis C virus, Huh-7, 48 h, HCV pseudoparticle infection of Huh7 cells, luciferase 2 days after infection; average of duplicates. It counts as cell-based.
As a reminder, the EC50 is the concentration giving half of the maximal effect. `COC(=O)[C@H](CCNC(=O)C(=O)N[C@@H](N)C1CC1)NC(=O)c1ccc(Nc2nc(NC3(c4ccc(Cl)cc4)CC3)nc(OCC(F)(F)F)n2)cc1` [Compound 1392] had an EC50 of 0.14 nM.

Turning to `COc1cccc(CCNC(=O)C(=O)NC[C@H](NC(=O)c2ccc(Nc3nc(NC4(c5ccc(Cl)cc5)CC4)nc(OCC(F)(F)F)n3)cc2)C(=O)O)c1` [Compound 1398], the EC50 came out at 2.19 nM. With `O=C(NCCc1ccncc1)C(=O)NC[C@H](NC(=O)c1ccc(Nc2nc(NC3(c4ccc(Cl)cc4)CC3)nc(OCC(F)(F)F)n2)cc1)C(=O)O` [Compound 1400], a half-maximal effect (EC50) was put at 3.77 nM.

Still in this experiment, the particulars now being: Hepatitis C virus, Huh-7, 48 h, read-out: Activity (EC50 class), HCV pseudoparticle infection of Huh7 cells, luciferase 2 days after infection; EC50 expressed as class A/B.
For the compound `COC(=O)[C@H](CCNC(=O)C(=O)NC(CCO)C1CC1)NC(=O)c1ccc(Nc2nc(NC3(c4ccc(Cl)cc4)CC3)nc(OCC(F)(F)F)n2)cc1` (stereo partly shown) [Compound 1391], the EC50 was in the range of 0.01 to 10 nM. As for `COC(=O)[C@H](CCNC(=O)C(=O)N[C@@H](N)C1CC1)NC(=O)c1ccc(Nc2nc(NC3(c4ccc(Cl)cc4)CC3)nc(OCC(F)(F)F)n2)cc1` [Compound 1392], the EC50 lay in the range of 0.01 to 10 nM. As to `COC(=O)[C@H](CCNC(=O)C(=O)NC[C@H]1C[C@H]1c1ccc(C)cc1)NC(=O)c1ccc(Nc2nc(NC3(c4ccc(Cl)cc4)CC3)nc(OCC(F)(F)F)n2)cc1` [Compound 1393], the EC50 lay within 0.01 to 10 nM. `O=C(NCCc1ccccn1)C(=O)NC[C@H](NC(=O)c1ccc(Nc2nc(NC3(c4ccc(Cl)cc4)CC3)nc(OCC(F)(F)F)n2)cc1)C(=O)O` [Compound 1394]: the EC50 fell in the range of 0.01 to 10 nM. For `CC(CNC(=O)C(=O)NC[C@H](NC(=O)c1ccc(Nc2nc(NC3(c4ccc(Cl)cc4)CC3)nc(OCC(F)(F)F)n2)cc1)C(=O)O)c1ccccc1` (stereo partly shown) [Compound 1395], the EC50 was in the range of 0.01 to 10 nM. For the compound `O=C(NCCc1ccccc1)C(=O)NC[C@H](NC(=O)c1ccc(Nc2nc(NC3(c4ccc(Cl)cc4)CC3)nc(OCC(F)(F)F)n2)cc1)C(=O)O` [Compound 1396], the EC50 fell in the range of 0.01 to 10 nM. As for `COc1ccccc1CCNC(=O)C(=O)NC[C@H](NC(=O)c1ccc(Nc2nc(NC3(c4ccc(Cl)cc4)CC3)nc(OCC(F)(F)F)n2)cc1)C(=O)O` [Compound 1397], the EC50 was 0.01 to 10 nM.

Consider `COc1cccc(CCNC(=O)C(=O)NC[C@H](NC(=O)c2ccc(Nc3nc(NC4(c5ccc(Cl)cc5)CC4)nc(OCC(F)(F)F)n3)cc2)C(=O)O)c1` [Compound 1398], for which the EC50 fell in the range of 0.01 to 10 nM.

Take `COc1ccc(CCNC(=O)C(=O)NC[C@H](NC(=O)c2ccc(Nc3nc(NC4(c5ccc(Cl)cc5)CC4)nc(OCC(F)(F)F)n3)cc2)C(=O)O)cc1` [Compound 1399]: the EC50 lay in the range of 0.01 to 10 nM. In the case of `O=C(NCCc1ccncc1)C(=O)NC[C@H](NC(=O)c1ccc(Nc2nc(NC3(c4ccc(Cl)cc4)CC3)nc(OCC(F)(F)F)n2)cc1)C(=O)O` [Compound 1400], the EC50 was in the range of 0.01 to 10 nM. On to `O=C(NCCc1cccc(F)c1)C(=O)NC[C@H](NC(=O)c1ccc(Nc2nc(NC3(c4ccc(Cl)cc4)CC3)nc(OCC(F)(F)F)n2)cc1)C(=O)O` [Compound 1401], for which the EC50 was in the range of 0.01 to 10 nM. The same measure, in the same setting: then `O=C(NCCc1ccccc1F)C(=O)NC[C@H](NC(=O)c1ccc(Nc2nc(NC3(c4ccc(Cl)cc4)CC3)nc(OCC(F)(F)F)n2)cc1)C(=O)O` [Compound 1402], with 0.01 to 10 nM; and `O=C(NC[C@H](NC(=O)c1ccc(Nc2nc(NC3(c4ccc(Cl)cc4)CC3)nc(OCC(F)(F)F)n2)cc1)C(=O)O)C(=O)NC1Cc2ccccc2C1` [Compound 1403], with 0.01 to 10 nM. Turning to `Cc1ccc(CCNC(=O)C(=O)NC[C@H](NC(=O)c2ccc(Nc3nc(NC4(c5ccc(Cl)cc5)CC4)nc(OCC(F)(F)F)n3)cc2)C(=O)O)cc1` [Compound 1404], the EC50 is 0.01 to 10 nM. As to `O=C(NCCc1cccnc1)C(=O)NC[C@H](NC(=O)c1ccc(Nc2nc(NC3(c4ccc(Cl)cc4)CC3)nc(OCC(F)(F)F)n2)cc1)C(=O)O` [Compound 1405], the EC50 was 0.01 to 10 nM. Take `O=C(NC[C@H](NC(=O)c1ccc(Nc2nc(NC3(c4ccc(Cl)cc4)CC3)nc(OCC(F)(F)F)n2)cc1)C(=O)O)C(=O)N[C@@H]1C[C@H]1c1ccccc1` [Compound 1406]: the EC50 fell in the range of 0.01 to 10 nM. Same read-out and setting: then `O=C(NCCc1c[nH]cn1)C(=O)NC[C@H](NC(=O)c1ccc(Nc2nc(NC3(c4ccc(Cl)cc4)CC3)nc(OCC(F)(F)F)n2)cc1)C(=O)O` [Compound 1407], with 0.01 to 10 nM; and `CC(C)(Cc1ccc(F)cc1)NC(=O)C(=O)NCC(NC(=O)c1ccc(Nc2nc(NC3(c4ccc(Cl)cc4)CC3)nc(OCC(F)(F)F)n2)cc1)C(=O)O` (stereo not shown) [Compound 1408], with 0.01 to 10 nM. For the compound `O=C(NCC1CCCc2ccccc21)C(=O)NC[C@@H](NC(=O)c1ccc(Nc2nc(NC3(c4ccc(Cl)cc4)CC3)nc(OCC(F)(F)F)n2)cc1)C(=O)O` (stereo partly shown) [Compound 1410], the half-maximal effective concentration (EC50) was in the range of 0.01 to 10 nM.
